Source: ChEMBL document CHEMBL1649144, “Breakpoints for susceptibility testing should not divide wild-type distributions of important target species” (2009)
Converted amounts (≈) assume the structure as drawn.

Assays:
Type in all cases: functional
Nakaseomyces glabratus [1] = test: Antimicrobial activity against Candida glabrata SSI-M68190-2007 by EUCAST method
Candida parapsilosis = test: Antimicrobial activity against Candida parapsilosis ATCC 21019 by EUCAST method; settings: Lodderomyces parapsilosis
Nakaseomyces glabratus [2] = test: Antimicrobial activity against Candida glabrata by EUCAST method

OC(Cn1cncn1)(Cn1cncn1)c1ccc(F)cc1F [FLUCONAZOLE]
MIC (Nakaseomyces glabratus [1]): 0.5 µg/mL (≈ 1.63 µM)
MIC (Candida parapsilosis): 0.5 µg/mL (≈ 1.63 µM)
MIC (Nakaseomyces glabratus [2]): 8 µg/mL (≈ 26.1 µM)
